Data published in patent publication US10344060B2 (priority 2013, dated 2019).
Where “and” joins values, the source holds several entries; their conditions need not be identical. Identical values can stand only once. Like-named read-outs stand apart in the source and are kept apart here.

How the values were obtained:
Test in all cases: cell-based
hNav1.7 [1] = molecular target: T1, hNav1.7 (Homo sapiens, UniProt Q15858); type: cell-based; conditions: read-out: PX hNav1.7 Tonic IC50
mNav1.7 = mNav1.7 (Mus musculus, UniProt Q62205)
hNav1.7 [2] = molecular target: T1, hNav1.7; conditions: IonWorks Quattro; […]; read-out: IC50 (μM) Nav1.7
hNav1.5 [3] = molecular target: T2, hNav1.5 (Homo sapiens, UniProt Q14524); conditions: IonWorks Quattro; Table 9; read-out: IC50 (μM) Nav1.5
hNav1.4 [4] = molecular target: T3, hNav1.4 (Homo sapiens, UniProt P35499); type: cell-based; conditions: Table 9; for IC50: IonWorks Quattro, read-out: IC50 (μM) Nav1.4; for Nav1.4/Nav1.7: ratio of IonWorks Quattro IC50 values
hNav1.3 = hNav1.3 (Homo sapiens, UniProt Q9NY46); conditions: IonWorks Quattro; Table 9; read-out: IC50 (μM) Nav1.3
Chain of hNav1.3 (Q9NY46 whole entry): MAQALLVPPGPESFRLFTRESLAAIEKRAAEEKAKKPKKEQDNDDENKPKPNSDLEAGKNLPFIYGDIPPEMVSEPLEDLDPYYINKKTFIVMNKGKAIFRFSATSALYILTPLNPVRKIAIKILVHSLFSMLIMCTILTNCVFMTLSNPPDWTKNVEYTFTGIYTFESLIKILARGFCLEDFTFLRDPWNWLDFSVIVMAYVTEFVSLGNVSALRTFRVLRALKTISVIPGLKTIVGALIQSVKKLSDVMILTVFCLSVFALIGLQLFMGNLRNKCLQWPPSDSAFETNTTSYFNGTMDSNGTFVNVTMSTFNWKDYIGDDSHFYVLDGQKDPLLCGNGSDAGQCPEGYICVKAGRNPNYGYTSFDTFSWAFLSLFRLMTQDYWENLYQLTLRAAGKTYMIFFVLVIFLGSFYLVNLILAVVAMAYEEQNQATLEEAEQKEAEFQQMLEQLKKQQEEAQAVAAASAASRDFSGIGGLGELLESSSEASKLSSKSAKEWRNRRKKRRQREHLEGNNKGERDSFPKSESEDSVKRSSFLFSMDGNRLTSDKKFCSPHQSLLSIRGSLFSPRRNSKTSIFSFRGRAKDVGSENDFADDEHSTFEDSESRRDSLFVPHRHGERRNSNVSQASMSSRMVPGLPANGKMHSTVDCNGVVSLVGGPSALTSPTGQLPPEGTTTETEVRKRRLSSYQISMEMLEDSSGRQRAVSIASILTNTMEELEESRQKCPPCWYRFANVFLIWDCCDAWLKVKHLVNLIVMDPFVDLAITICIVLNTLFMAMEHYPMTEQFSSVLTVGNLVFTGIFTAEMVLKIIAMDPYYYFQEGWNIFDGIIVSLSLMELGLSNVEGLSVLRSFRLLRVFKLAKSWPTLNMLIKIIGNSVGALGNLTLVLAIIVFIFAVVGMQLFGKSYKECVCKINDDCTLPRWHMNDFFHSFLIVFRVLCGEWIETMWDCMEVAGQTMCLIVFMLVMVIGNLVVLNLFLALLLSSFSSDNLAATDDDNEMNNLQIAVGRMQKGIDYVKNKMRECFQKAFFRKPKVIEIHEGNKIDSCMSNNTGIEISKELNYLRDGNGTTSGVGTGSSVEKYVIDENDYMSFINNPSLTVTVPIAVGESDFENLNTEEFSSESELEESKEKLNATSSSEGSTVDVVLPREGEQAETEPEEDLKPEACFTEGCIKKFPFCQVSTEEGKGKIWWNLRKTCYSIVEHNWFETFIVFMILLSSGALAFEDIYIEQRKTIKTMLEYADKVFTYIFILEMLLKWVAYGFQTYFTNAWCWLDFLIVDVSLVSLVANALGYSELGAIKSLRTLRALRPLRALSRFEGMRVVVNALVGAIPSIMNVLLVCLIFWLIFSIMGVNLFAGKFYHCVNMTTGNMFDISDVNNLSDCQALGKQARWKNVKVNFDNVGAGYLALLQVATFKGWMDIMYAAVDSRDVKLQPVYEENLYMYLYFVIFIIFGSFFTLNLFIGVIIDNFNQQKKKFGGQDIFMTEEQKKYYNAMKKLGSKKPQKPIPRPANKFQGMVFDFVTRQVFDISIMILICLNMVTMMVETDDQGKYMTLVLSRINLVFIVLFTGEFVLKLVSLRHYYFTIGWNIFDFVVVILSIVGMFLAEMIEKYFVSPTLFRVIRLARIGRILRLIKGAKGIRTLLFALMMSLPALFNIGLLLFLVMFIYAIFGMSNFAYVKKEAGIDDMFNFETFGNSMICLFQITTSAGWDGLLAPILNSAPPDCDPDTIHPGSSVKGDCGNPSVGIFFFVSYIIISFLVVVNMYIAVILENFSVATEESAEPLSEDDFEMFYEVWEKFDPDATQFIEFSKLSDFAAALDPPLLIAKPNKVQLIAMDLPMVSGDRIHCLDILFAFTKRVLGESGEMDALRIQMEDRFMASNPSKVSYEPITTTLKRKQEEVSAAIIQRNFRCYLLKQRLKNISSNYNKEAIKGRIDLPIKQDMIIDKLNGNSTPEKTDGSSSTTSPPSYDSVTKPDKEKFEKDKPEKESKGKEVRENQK

hNav1.5 [5] = molecular target: T2, hNav1.5; conditions: for Nav1.5/Nav1.7: Table 13, ratio of PX tonic IC50 values; for IC50: read-out: PX hNav1.5 Tonic IC50
hNav1.4 [6] = molecular target: T3, hNav1.4; type: cell-based; conditions: for Nav1.4/Nav1.7: Table 13, ratio of PX tonic IC50 values; for IC50: read-out: PX hNav1.4 Tonic IC50

T1 sequence (Q15858 whole entry): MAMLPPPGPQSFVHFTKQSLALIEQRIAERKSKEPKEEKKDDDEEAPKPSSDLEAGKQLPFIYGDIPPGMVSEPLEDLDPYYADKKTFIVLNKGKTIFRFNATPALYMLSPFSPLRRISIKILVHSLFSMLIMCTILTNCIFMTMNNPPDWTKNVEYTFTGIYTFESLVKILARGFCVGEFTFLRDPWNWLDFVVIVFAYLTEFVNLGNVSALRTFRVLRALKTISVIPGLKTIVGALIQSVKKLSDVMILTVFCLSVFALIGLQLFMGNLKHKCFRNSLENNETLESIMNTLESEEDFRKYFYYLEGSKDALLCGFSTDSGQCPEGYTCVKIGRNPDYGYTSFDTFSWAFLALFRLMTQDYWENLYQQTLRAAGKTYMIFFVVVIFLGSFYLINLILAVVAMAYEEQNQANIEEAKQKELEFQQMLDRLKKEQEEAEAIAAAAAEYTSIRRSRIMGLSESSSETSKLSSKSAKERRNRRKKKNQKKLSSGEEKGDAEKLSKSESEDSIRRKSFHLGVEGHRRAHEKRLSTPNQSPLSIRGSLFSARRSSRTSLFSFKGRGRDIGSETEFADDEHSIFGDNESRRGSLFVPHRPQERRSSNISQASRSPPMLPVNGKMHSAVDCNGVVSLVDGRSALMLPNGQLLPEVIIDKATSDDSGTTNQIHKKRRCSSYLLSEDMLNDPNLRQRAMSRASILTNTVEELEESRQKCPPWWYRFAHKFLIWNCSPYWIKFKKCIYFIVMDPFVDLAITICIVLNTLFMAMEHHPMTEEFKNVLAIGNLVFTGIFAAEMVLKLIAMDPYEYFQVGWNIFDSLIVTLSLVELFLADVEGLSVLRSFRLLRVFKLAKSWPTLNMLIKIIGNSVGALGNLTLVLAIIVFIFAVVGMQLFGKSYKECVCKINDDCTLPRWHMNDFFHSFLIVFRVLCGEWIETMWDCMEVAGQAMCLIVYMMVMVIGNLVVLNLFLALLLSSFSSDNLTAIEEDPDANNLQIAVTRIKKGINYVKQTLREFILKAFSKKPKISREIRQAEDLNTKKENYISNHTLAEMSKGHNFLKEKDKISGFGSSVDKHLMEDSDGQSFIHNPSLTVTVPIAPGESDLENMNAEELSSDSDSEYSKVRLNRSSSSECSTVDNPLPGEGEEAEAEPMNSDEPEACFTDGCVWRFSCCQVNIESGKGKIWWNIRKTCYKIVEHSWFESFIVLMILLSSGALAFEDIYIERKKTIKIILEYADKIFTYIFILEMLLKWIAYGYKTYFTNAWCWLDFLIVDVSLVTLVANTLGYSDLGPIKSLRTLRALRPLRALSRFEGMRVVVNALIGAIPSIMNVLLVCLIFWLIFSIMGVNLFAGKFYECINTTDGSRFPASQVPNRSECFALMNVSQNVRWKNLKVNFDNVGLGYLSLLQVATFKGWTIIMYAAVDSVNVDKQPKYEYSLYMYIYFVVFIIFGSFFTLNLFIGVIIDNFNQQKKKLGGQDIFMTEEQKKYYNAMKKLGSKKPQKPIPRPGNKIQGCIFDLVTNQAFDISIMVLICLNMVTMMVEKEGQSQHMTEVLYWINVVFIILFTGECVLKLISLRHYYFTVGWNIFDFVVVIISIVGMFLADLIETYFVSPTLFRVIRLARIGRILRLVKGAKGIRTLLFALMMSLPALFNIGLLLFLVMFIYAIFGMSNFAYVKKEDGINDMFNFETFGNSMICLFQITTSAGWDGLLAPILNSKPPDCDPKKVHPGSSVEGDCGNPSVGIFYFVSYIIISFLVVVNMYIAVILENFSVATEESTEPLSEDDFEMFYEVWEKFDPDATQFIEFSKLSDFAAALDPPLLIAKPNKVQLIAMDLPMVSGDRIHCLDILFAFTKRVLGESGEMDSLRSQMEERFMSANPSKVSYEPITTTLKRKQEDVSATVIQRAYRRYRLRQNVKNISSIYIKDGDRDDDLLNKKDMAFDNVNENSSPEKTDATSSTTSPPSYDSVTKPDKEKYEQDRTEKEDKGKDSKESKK

SMILES: CCCC[C@@H]1NC(=O)[C@H](Cc2c[nH]c3ccccc23)NC(=O)[C@H](CCCCN)NC(=O)[C@H](CCC(N)=O)NC(=O)[C@@H](NC(=O)[C@H](Cc2ccc(O)cc2)NC(=O)[C@@H](N)CC#N)CSSC[C@@H]2NC(=O)[C@@H]3CSSC[C@@H](C(=O)N[C@@H](CCCNC(=N)N)C(=O)N[C@@H](CCCCN)C(=O)N[C@H](C(=O)N[C@H](C(N)=O)[C@@H](C)CC)[C@@H](C)CC)NC(=O)[C@H](Cc4c[nH]c5ccccc45)NC(=O)[C@H](CC(C)C)NC(=O)[C@H](CCCCN)NC(=O)[C@H](CSSC[C@H](NC(=O)[C@H]([C@@H](C)O)NC(=O)[C@H](Cc4c[nH]c5ccccc45)NC1=O)C(=O)N[C@@H](CC(=O)O)C(=O)N[C@@H](CO)C(=O)N[C@@H](CCCCN)C(=O)N[C@@H](CCCNC(=N)N)C(=O)N[C@@H](C)C(=O)N3)NC(=O)[C@H](CCCNC(=N)N)NC(=O)[C@H](CC(C)C)NC(=O)CNC(=O)[C@H](CCC(=O)O)NC2=O [CyA-[Nle6]JzTx-V(1-29)]
- IC50 (hNav1.7 [1]; PatchXpress, tonic block, human Nav1.7): 0.31 nM
- IC50 (mNav1.7; PatchXpress, tonic block, mouse Nav1.7, read-out: PX mNav1.7 Tonic IC50): 0.957 nM
- mNav1.7/hNav1.7 (mNav1.7; ratio of PX tonic IC50, mouse Nav1.7 over human Nav1.7): 3.09

SMILES: CCCC[C@@H]1NC(=O)[C@H](Cc2c[nH]c3ccccc23)NC(=O)[C@H](CCCCN)NC(=O)[C@H](CCC(N)=O)NC(=O)[C@@H](NC(=O)[C@H](Cc2ccc(O)cc2)NC(=O)[C@@H](N)Cc2cn(CCCOCCOCCOCCOCCOCCOCCOCCOCCOCCOCCN)nn2)CSSC[C@@H]2NC(=O)[C@@H]3CSSC[C@@H](C(=O)N[C@@H](CCCNC(=N)N)C(=O)N[C@@H](CCCCN)C(=O)N[C@H](C(=O)N[C@H](C(N)=O)[C@@H](C)CC)[C@@H](C)CC)NC(=O)[C@H](Cc4c[nH]c5ccccc45)NC(=O)[C@H](CC(C)C)NC(=O)[C@H](CCCCN)NC(=O)[C@H](CSSC[C@H](NC(=O)[C@H]([C@@H](C)O)NC(=O)[C@H](Cc4c[nH]c5ccccc45)NC1=O)C(=O)N[C@@H](CC(=O)O)C(=O)N[C@@H](CO)C(=O)N[C@@H](CCCCN)C(=O)N[C@@H](CCCNC(=N)N)C(=O)N[C@@H](C)C(=O)N3)NC(=O)[C@H](CCCNC(=N)N)NC(=O)[C@H](CC(C)C)NC(=O)CNC(=O)[C@H](CCC(=O)O)NC2=O [compound 247]
- IC50 (hNav1.7 [2]): 0.07 µM
- IC50 (hNav1.5 [3]): 4.3 µM
- IC50 (hNav1.4 [4]): 0.15 µM
- Nav1.4/Nav1.7 (hNav1.4 [4]): 2
- IC50 (hNav1.3): 0.13 µM
- IC50 (hNav1.7 [1]): 6 nM
- Nav1.5/Nav1.7 (hNav1.5 [5]): 629
- IC50 (hNav1.5 [5]): 3770 nM
- Nav1.4/Nav1.7 (hNav1.4 [6]): 1
- IC50 (hNav1.4 [6]): 8 nM

SMILES: CCCC[C@@H]1NC(=O)[C@H](Cc2c[nH]c3ccccc23)NC(=O)[C@H](CCCCN)NC(=O)[C@H](CCC(N)=O)NC(=O)[C@@H](NC(=O)[C@@H](N)Cc2cn(CCCOCCOCCOCCOCCOCCOCCOCCOCCOCCOCCN)nn2)CSSC[C@@H]2NC(=O)[C@@H]3CSSC[C@@H](C(=O)N[C@@H](CCCNC(=N)N)C(=O)N[C@@H](CCCCN)C(=O)N[C@H](C(=O)N[C@H](C(N)=O)[C@@H](C)CC)[C@@H](C)CC)NC(=O)[C@H](Cc4c[nH]c5ccccc45)NC(=O)[C@H](CC(C)C)NC(=O)[C@H](CCCCN)NC(=O)[C@H](CSSC[C@H](NC(=O)[C@H]([C@@H](C)O)NC(=O)[C@H](Cc4c[nH]c5ccccc45)NC1=O)C(=O)N[C@@H](CC(=O)O)C(=O)N[C@@H](CO)C(=O)N[C@@H](CCCCN)C(=O)N[C@@H](CCCNC(=N)N)C(=O)N[C@@H](C)C(=O)N3)NC(=O)[C@H](CCCNC(=N)N)NC(=O)[C@H](CC(C)C)NC(=O)CNC(=O)[C@H](CCC(=O)O)NC2=O [compound 248]
- IC50 (hNav1.5 [3]): > 7 µM
- IC50 (hNav1.4 [4]): 0.39 µM and 0.45 µM
- Nav1.4/Nav1.7 (hNav1.4 [4]): 4 and 3
- IC50 (hNav1.3): 0.16 µM and 0.13 µM
- IC50 (hNav1.7 [1]): 1 nM
- Nav1.5/Nav1.7 (hNav1.5 [5]): 946
- IC50 (hNav1.5 [5]): 950 nM
- Nav1.4/Nav1.7 (hNav1.4 [6]): 15
- IC50 (hNav1.4 [6]): 15 nM
